According to the METLIN SMRT retention time set (Domingo-Almenara et al. 2019):

Assay: gradient 5% acetonitrile 3 min, to 50% in 2 min, to 85% in 15 min, held 3 min, 100 µL/min
Conditions: column: Zorbax Extend-C18 2.1 x 50 mm; eluents: water / acetonitrile, 0.1% formic acid
How it was run: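 Over 3 months, pure standards in mixtures of ~100 molecules were run by HPLC coupled to a quadrupole time-of-flight mass spectrometer in positive and negative ionization mode. The column was a Zorbax Extend-C18 (2.1 × 50 mm, 1.8 μm) at 100 μL/min, eluted with water and acetonitrile each holding 0.1% formic acid, with 40 μL dead and 900 μL dwell volumes. Retention time was determined from adduct peaks chosen by software and checked manually.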

For `Cc1cccc(-c2noc(-c3ccc(N4CCN(C5CCCCC5)CC4)nc3)n2)c1`, the RP-LC retention time was 831 s.

Work on `Cc1nc(-c2cn(C(C)C)c3ncccc23)sc1C(=O)NCCN1CCOCC1` yielded an RP-LC retention time of 630 s.

For `CCc1cc(C(=O)Nc2ccccc2OC)nc2ccnn12`, the RP-LC retention time was 1090 s.

For `COc1ccccc1-c1csc(-c2nnn(-c3ccccc3)c2N)n1`, the RP-LC retention time was 1070 s.

In the case of `CCCn1cc(CCNS(=O)(=O)c2ccccc2)c2cccnc21`, the RP-LC retention time is reported as 786 s.

`COc1cccc2nc(NC(=O)c3ccc(Br)s3)sc12` gave an RP-LC retention time of 990 s.

With `O=C(CN1CCC(c2nc(-c3ccc(F)cc3)no2)CC1)NC1CCCCC1` the RP-LC retention time was 715 s.

`COC1CN(c2cccc(F)c2)C12CCN(S(=O)(=O)c1cccc3cccnc13)CC2` (stereo unspecified) gave an RP-LC retention time of 1110 s.

With `COc1ccc(C2Cn3nnc(-c4nc(-c5ccc(C)c(C)c5)no4)c3CO2)cc1` (stereo unspecified) the RP-LC retention time was 1270 s.

With `Cc1cccc(NC(=O)Cn2nc(N3CCCC(C)C3)c3ccccc3c2=O)c1` (stereo unspecified) the RP-LC retention time was 1090 s.

`CCCN1C(=O)c2cc(S(=O)(=O)Nc3cccc(Cl)c3)ccc2Oc2cccnc21` showed an RP-LC retention time of 1120 s.

For `CC(C)c1ccc(-n2nc(N3CCN(C(=O)Cc4cccs4)CC3)ccc2=O)cc1`, the RP-LC retention time was 898 s.

Work on `Cc1nnc([C@@H]2CC(F)(F)CN2C(=O)COc2ccc(F)cc2)o1` yielded an RP-LC retention time of 736 s.

Work on `O=C(Cn1c(=O)c2cccn2c2ccc(F)cc21)NCCCN1CCOCC1` yielded an RP-LC retention time of 602 s.

Compound `CC(C)Cc1ccc(S(=O)(=O)N2CCc3c(c(CN4CCN(C)CC4)nn3C)C2)cc1` has an RP-LC retention time of 687 s.

Compound `COCCNS(=O)(=O)c1ccc(-c2ccc(C)cc2)cc1` has an RP-LC retention time of 890 s.

With `CCc1ccc(NC(=O)c2c(C)oc3nc(C)nc(N4CCCC4)c23)cc1` the RP-LC retention time was 830 s.

For `CCc1nc2c(c(=O)n1CC(=O)Nc1ccc(OC)cc1)CN(Cc1ccccc1)CC2`, the RP-LC retention time was 635 s.

`CC1(C)CCSC(/C=C/c2ccccc2)=N1` showed an RP-LC retention time of 690 s.

In the case of `COc1ccc(N2CC(c3nc(-c4ccc(N(C)C)cc4)no3)CC2=O)cc1Cl` (stereo unspecified), the RP-LC retention time is reported as 1030 s.

In the case of `C=CCn1c(=O)c2ccccc2n(Cc2nc(-c3ccc(Br)cc3)no2)c1=O`, the RP-LC retention time is reported as 1150 s.

`O=C(Nc1cccc(F)c1)C1CCN(S(=O)(=O)c2cc(-c3noc(C4CCC4)n3)cs2)CC1` showed an RP-LC retention time of 1110 s.

For `Cc1ccc(NC(=O)Nc2c(-c3ccc(F)cc3)nc3ccccn23)cc1`, the RP-LC retention time was 692 s.

Compound `COCCCn1c(=O)c2ccccc2n(Cc2nc(-c3ccccc3Cl)no2)c1=O` has an RP-LC retention time of 1140 s.

`Cc1cccc2cc(-c3noc(C(C)C)n3)c(NCCc3ccc(S(N)(=O)=O)cc3)nc12` showed an RP-LC retention time of 1270 s.

With `COc1ccc(N2CCN(C(=O)C3CCCN(c4nnc(-n5cccc5)s4)C3)CC2)cc1` (stereo unspecified) the RP-LC retention time was 829 s.

For `COCCNc1ncc(C(=O)O)c(-c2cccc(C)c2)n1`, the RP-LC retention time was 700 s.

In the case of `Cc1ccn2cc(-c3ccc(NC(=O)c4ccccc4[N+](=O)[O-])cc3)nc2n1`, the RP-LC retention time is reported as 622 s.

Work on `COc1ccccc1NC(=O)N1CCN(c2cc(C)nc(N3CCOCC3)n2)CC1` yielded an RP-LC retention time of 618 s.

Compound `CCOc1ccc(Br)cc1S(=O)(=O)N1CCN(c2nc(C)cc(N(C)C)n2)CC1` has an RP-LC retention time of 765 s.

`Cc1ccc2c(=O)c(C(=O)c3ccc(Cl)cc3)cn(CC(=O)NCC3CCCO3)c2n1` (stereo unspecified) gave an RP-LC retention time of 745 s.

With `O=C(CN1C(=O)CCS(=O)(=O)c2ccccc21)Nc1ccc(Br)cc1` the RP-LC retention time was 774 s.

With `CCOC(=O)c1noc2nc(C)nc(N3CCN(c4ccccc4)CC3)c12` the RP-LC retention time was 643 s.

`CC(C)CCC(=O)N1CCC2(CC1)CC(O)CCO2` (stereo unspecified) gave an RP-LC retention time of 644 s.

With `O=C(Cc1ccccc1)NCCc1nc2ccccc2[nH]1` the RP-LC retention time was 545 s.

Compound `CN1c2cc(C(=O)NCc3ccc(F)cc3Cl)ccc2C(=O)N2CCCCC21` (stereo unspecified) has an RP-LC retention time of 833 s.

With `O=C(CCc1nc2ccccc2[nH]1)N1CCC(c2noc(-c3ccccn3)n2)C1` (stereo unspecified) the RP-LC retention time was 581 s.

Compound `COc1ccc(C2CN(S(=O)(=O)c3cccc(C#N)c3)CCN2C)cc1` (stereo unspecified) has an RP-LC retention time of 550 s.

With `Cc1nn(C(C)C(=O)NCCCN2CCCCC2)c(=O)c2c1sc1ccccc12` (stereo unspecified) the RP-LC retention time was 680 s.

For `Cc1ccc(Cl)cc1NC(=O)CSc1ccc(N2CCOCC2)nn1`, the RP-LC retention time was 766 s.

For `COc1ccc(-c2nnc(-c3ccccc3)o2)cc1S(=O)(=O)N1CCCCC1`, the RP-LC retention time was 1020 s.

With `O=C(CCc1nnn2c1CN(C(=O)c1ccc(F)cc1)CC2)NC1CC1` the RP-LC retention time was 617 s.

`Cc1cc(C)n(-c2ccccc2Cl)c(=O)c1C(=O)O` gave an RP-LC retention time of 787 s.

`CCC(C)OC(=O)C1=C(C)NC(=O)NC1c1ccc(OC)c(O)c1` (stereo unspecified) gave an RP-LC retention time of 693 s.

In the case of `CCc1ccc(NC(=O)Cn2cnc3c(sc4nc(-c5ccccc5)ccc43)c2=O)cc1`, the RP-LC retention time is reported as 1100 s.

`O=C(C1CCN(c2nc(-c3ccc(Cl)cc3)no2)CC1)N1CCOCC1` showed an RP-LC retention time of 874 s.

For `CCc1onc(C)c1C1CCCN1C(=O)Nc1cccc(OC)c1` (stereo unspecified), the RP-LC retention time was 791 s.

For `COc1ccc(-c2nnc(CC(=O)NCCC3=CCCCC3)o2)cc1`, the RP-LC retention time was 889 s.

In the case of `Cc1ccc(-c2nc(-c3cccc(-c4ccnn4C)c3)no2)cc1F`, the RP-LC retention time is reported as 1250 s.

`COc1ccc(-c2nc3cnccn3c2Nc2cccc(Cl)c2C)cc1OC` showed an RP-LC retention time of 890 s.

`CCc1nc(-c2ccc3c(c2)CCN3C(=O)Cc2cc(OC)cc(OC)c2)no1` gave an RP-LC retention time of 996 s.

`CSc1ccccc1NC(=O)C(=O)NCC(C)(O)c1ccco1` (stereo unspecified) showed an RP-LC retention time of 995 s.

Compound `CN(CC1CCOCC1)C(=O)c1cccs1` has an RP-LC retention time of 664 s.

In the case of `Cc1ccc(-n2ncc3c(C)nnc(SCC(=O)N4CCC(C)CC4)c32)cc1C`, the RP-LC retention time is reported as 716 s.

`O=C(Nc1cnc(-c2cccc(Cl)c2)nc1)C1CCC1` showed an RP-LC retention time of 1020 s.

`O=C(NCc1ccccc1)Nc1cccn2ncnc12` gave an RP-LC retention time of 702 s.

With `CC(C)NC(=O)CCC1CCN(c2cc(NC3CC3)ncn2)CC1` the RP-LC retention time was 551 s.

`COc1cccc(-c2nc(C3CCN(S(=O)(=O)c4ccc(C(C)C)cc4)CC3)no2)c1` gave an RP-LC retention time of 1300 s.

Compound `COc1ccc(-n2cc(C(=O)OCC(=O)OC(C)C)c3ccccc3c2=O)cc1` has an RP-LC retention time of 1060 s.

`COc1ccc(C(=O)N2C[C@@H]3C[C@H]2C[C@@H]3NC(=O)c2cccs2)cn1` showed an RP-LC retention time of 666 s.

Work on `Cc1sc(NC(=O)C(C)(C)C)nc1-c1ccc2c(c1)NC(=O)C(C)O2` (stereo unspecified) yielded an RP-LC retention time of 908 s.

Compound `O=C(CSc1ccncc1)N1CCc2cc(-c3csc(C4CC4)n3)ccc21` has an RP-LC retention time of 723 s.

In the case of `CCCc1ccc(S(=O)(=O)Nc2ccc3nc(S(=O)(=O)CC)sc3c2)cc1`, the RP-LC retention time is reported as 1020 s.

`O=C(CSc1cn(CC(=O)N2CCCCCC2)c2ccccc12)NCC1CCCO1` (stereo unspecified) gave an RP-LC retention time of 799 s.

`O=C(COc1ccc(Cl)cc1)N1CCN(CC(F)(F)F)CC1` showed an RP-LC retention time of 853 s.

`Cc1ccc(S(=O)(=O)N2CCCOC2CNC(=O)C(=O)NCc2cccs2)cc1` (stereo unspecified) showed an RP-LC retention time of 806 s.

In the case of `Cc1ccc(CNC(=O)C2(C)Cn3nc(C(=O)N4CCOCC4)cc3C(=O)N2C)cc1` (stereo unspecified), the RP-LC retention time is reported as 662 s.

`CCOc1ccccc1N1CCN(S(=O)(=O)c2nn(C)cc2C(=O)NC2CCCCC2)CC1` gave an RP-LC retention time of 1110 s.

For `CN(C)c1cccc(C(=O)NC2CCN(c3ccc(F)cc3)C2=O)c1` (stereo unspecified), the RP-LC retention time was 705 s.

`Cc1cc(C)cc(C(=O)NC2CCN(c3cc(-c4cccs4)[nH]n3)C2)c1` (stereo unspecified) showed an RP-LC retention time of 742 s.

`O=C(c1ccoc1)N1CC(N(Cc2ccncc2)CC2CC2)C1` gave an RP-LC retention time of 593 s.

Compound `CC1Oc2ccccc2OC1C(=O)NCc1ccsc1` (stereo unspecified) has an RP-LC retention time of 832 s.

`Cc1nnc2c(S(=O)(=O)N(Cc3ccccc3)c3cc(F)cc(F)c3)cccn12` gave an RP-LC retention time of 865 s.

`CCOc1cccc2c1OC1(C)CC2NC(=O)N1c1cccc(C(=O)NCc2cccs2)c1` (stereo unspecified) showed an RP-LC retention time of 790 s.

In the case of `Clc1cc2c(nn1)Nc1ccccc1S2`, the RP-LC retention time is reported as 892 s.

Compound `CCOc1ccccc1CNC(=O)c1cc2c(=O)n(C)ccc2n1C` has an RP-LC retention time of 713 s.

With `Cc1cc(C)n(Cc2nc(-c3ccc(NC(=O)C(C)C)cc3)oc2C)n1` the RP-LC retention time was 816 s.

`O=C1NC2(CCN(C(=O)c3cc(F)cc(F)c3)CC2)Nc2c(Cl)cccc21` showed an RP-LC retention time of 760 s.

Work on `COc1ccc2c(c1)C1(CCN(C(=O)CC(C)(C)C)C1)C(=O)N2` (stereo unspecified) yielded an RP-LC retention time of 725 s.

`CCCN1C(=O)c2c(C(=O)NCc3ccc(Cl)cc3)ncn2CC1(C)C(=O)NCCC(C)C` (stereo unspecified) gave an RP-LC retention time of 868 s.

With `COc1ccc(Cl)cc1NC(=O)c1sc(-c2cn(C)c3ncccc23)nc1C` the RP-LC retention time was 1220 s.

With `COCCN1CCC(CNS(=O)(=O)c2ccc(F)cc2C)CC1` the RP-LC retention time was 566 s.

`CCNC(=O)C1CCN(c2nc3ncn(CC(=O)Nc4ccc(OCC)cc4)c(=O)c3s2)CC1` gave an RP-LC retention time of 662 s.

`CCc1cccc(NC(=O)N2[C@H]3CC[C@@H]2c2cncnc2C3)c1` showed an RP-LC retention time of 741 s.

In the case of `Cc1cccc(CN2CC=C(C(=O)N3CCN(c4ccccc4C)CC3)CC2)c1`, the RP-LC retention time is reported as 726 s.

Work on `CCOC(=O)Cc1csc(NC(=O)CSc2nc(C)nc3sc4c(c23)CCC4)n1` yielded an RP-LC retention time of 998 s.

With `CCSc1nnc(-c2nn(C)c3c2CN(S(=O)(=O)CC)CC3)n1CC` the RP-LC retention time was 750 s.

`O=c1c(NCCc2cccnc2)nc2ccncc2n1Cc1ccccc1` gave an RP-LC retention time of 539 s.

`Cc1ccccc1C(=O)N1CCN(CC(F)(F)F)CC1` showed an RP-LC retention time of 752 s.

With `O=C(NCc1ccc(F)cc1F)c1ccc2c(c1)ncn2CCN1CCCC1` the RP-LC retention time was 576 s.

For `Cc1sc(-c2cc(C(F)(F)F)on2)cc1S(=O)(=O)Nc1ccccc1`, the RP-LC retention time was 1130 s.
